Results reported in patent publication US11446223B2, “Anti-aging composition” (NEOPHARM CO., LTD., priority 2016, dated 2022).

Experiments:
Type in all cases: cell-based
human fibroblasts = test: Type-1 collagen synthesis in human fibroblasts (PICP EIA kit); conditions: 24 hours
Experimental: N-(1,3-dihydroxy propan-2-yl)-2-ethylhexanamide was added to a culture medium of human fibroblasts (DMEM medium, 10% fetal bovine serum, 1% antibiotics) to confirm the effect of accelerating type-1 collagen synthesis in a cell level. The measurement of the synthesized collagen was qualified using a procollagen type I C-peptide enzyme immunoassay kit (PICP EIA kit).
The human fibroblast culture medium was used to aliquot the human-derived fibroblasts (human fibroblasts) into 6 wells at 2×10^5 cell/well. After cell adhesion was confirmed, the culture medium was treated with 2 ml of N-(1,3-dihydroxy propan-2-yl)-2-ethylhexanamide as an effective component (anti-aging composition) per each well, at a concentration of 20 uM. After the culture medium was cultured in an incubator under a condition of 37° C. and 5% CO2 for 24 hours, type-1 collagen which is related to a wrinkle forming factor was measured in a cell extract. […]
The effect of accelerating type-1 collagen synthesis was confirmed in the same manner as in Example 1, except that the effective component was not used (a negative control). In addition, type-1 collagen synthesis ability relative to the negative control was calculated as a ratio, and illustrated as a rate of increase (see Table 1 and FIG. 1).

[1] = test system: Artificial skin (EpiDermFT); test: Collagen synthesis in artificial skin, Masson's Trichrome staining; conditions: 100 μl at 1% on artificial skin surface, 24 hours, versus PBS (Comparative Example 2)
Experimental: Artificial skin (EpiDermFT™ from MatTek, Ashland, USA) was purchased, and stabilized in an exclusive medium (EFT-400) for 18 hours. On the surface of the artificial skin, 100 μl of N-(1,3-dihydroxy propan-2-yl)-2-ethylhexanamide as an effective component (anti-aging composition) at a concentration of 1% was applied. After 24 hours, the artificial skin tissue was immobilized with 10% formaldehyde, embedded with paraffin, and sliced at 5 μm to obtain a sliced tissue which was used for confirming the effect of accelerating collagen synthesis (see FIG. 2).
The artificial skin was stabilized in the same manner as in Example 2, and coated with only 100 μl of PBS without an effective component. After 24 hours, the artificial skin tissue was immobilized with 10% formaldehyde, embedded with paraffin, and sliced at 5 μm to obtain a sliced tissue which was used for confirming the effect of accelerating collagen synthesis.

[2] = test system: human-derived fibroblasts; test: Toxicity / cell proliferation in human-derived fibroblasts; conditions: 20 uM

Q: With `CCCCC(CC)C(=O)NC(CO)CO` (stereo not shown) [Example 1, N-(1,3-dihydroxypropan-2-yl)-2-ethylhexanamide] as the compound, how does the “Type-1 collagen concentration (20 uM)” value (human fibroblasts; 20 uM compound, cell extract, human fibroblasts) read?
A: 0.017

Q: What about the “Rate of increase (%)” value (human fibroblasts; type-1 collagen relative to negative control (Comparative Example 1), 20 uM) of the same compound?
A: 242%

Q: And the “effect of accelerating collagen synthesis (Masson's Trichrome staining)” value [1]?
A: accelerated collagen synthesis much more

Q: And the toxicity [2]?
A: not toxic
